Test results taken from PubChem BioAssay (NCI).
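Briefly, cells in 96-well plates were exposed to five compound concentrations for 48 h, and endpoints were estimated by linear interpolation. GI50 = concentration required for 50% inhibition of growth. TGI: concentration producing complete growth inhibition.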

Columns and labels:
Experiment in all cases: NCI anticancer screen, dose series, 48 h
OVCAR-5 ovarian = tested on: OVCAR-5 ovarian
M14 melanoma = tested on: M14 melanoma
SR leukemia = tested on: SR leukemia
HL-60(TB) leukemia = tested on: HL-60(TB) leukemia
UACC-62 melanoma = tested on: UACC-62 melanoma
MOLT-4 leukemia = tested on: MOLT-4 leukemia
KM20L2 colon = tested on: KM20L2 colon
LXFL 529 NSCLC = tested on: LXFL 529 NSCLC

CCC[CH2][Sn]1([CH2]CCC)[O]C(=O)C[S]1
GI50 (OVCAR-5 ovarian): 2.09 µM | TGI (OVCAR-5 ovarian): 5.27 µM | GI50 (M14 melanoma): 2.05 µM | TGI (M14 melanoma): 4.43 µM | GI50 (SR leukemia): 1.13 µM | TGI (SR leukemia): 7.09 µM | GI50 (HL-60(TB) leukemia): 1.02 µM | TGI (HL-60(TB) leukemia): 4.66 µM | GI50 (UACC-62 melanoma): 1.35 µM | TGI (UACC-62 melanoma): 2.89 µM | GI50 (MOLT-4 leukemia): 1.39 µM | TGI (MOLT-4 leukemia): 5.46 µM | GI50 (KM20L2 colon): 4.06 µM | TGI (KM20L2 colon): 15.9 µM | GI50 (LXFL 529 NSCLC): 0.312 µM | TGI (LXFL 529 NSCLC): 1.55 µM

CC(C)C(/C=C/c1ccccc1)=N\NC(=O)N/N=C(/C=C/c1ccccc1)C(C)C
TGI (OVCAR-5 ovarian): > 100 µM | TGI (M14 melanoma): > 100 µM | TGI (SR leukemia): 87.2 µM | TGI (HL-60(TB) leukemia): 45.9 µM | TGI (UACC-62 melanoma): > 100 µM | TGI (MOLT-4 leukemia): 54.3 µM | TGI (KM20L2 colon): 93.6 µM | TGI (LXFL 529 NSCLC): 75.3 µM

CN(C)c1nc(N(C)C)nc(N(C)CN(C)c2nc(N(C)C)nc(N(C)C)n2)n1
TGI (OVCAR-5 ovarian): > 100 µM | TGI (M14 melanoma): > 100 µM | TGI (SR leukemia): > 100 µM | TGI (HL-60(TB) leukemia): > 100 µM | TGI (UACC-62 melanoma): > 100 µM | TGI (MOLT-4 leukemia): > 100 µM | TGI (KM20L2 colon): > 100 µM | TGI (LXFL 529 NSCLC): > 100 µM

O=C1c2c(c3c4ccccc4n4c3c3c2c2ccccc2n3C/C=C\C4)C(=O)N1Cc1ccccc1
TGI (OVCAR-5 ovarian): > 100 µM | TGI (M14 melanoma): > 100 µM | TGI (SR leukemia): > 100 µM | TGI (HL-60(TB) leukemia): > 100 µM | TGI (UACC-62 melanoma): > 100 µM | TGI (MOLT-4 leukemia): > 100 µM | TGI (KM20L2 colon): > 100 µM | TGI (LXFL 529 NSCLC): > 100 µM

CSC(=S)N(C)NC(=O)c1cccc(C(=O)NN(C)C(=S)SC)n1
TGI (OVCAR-5 ovarian): > 100 µM | TGI (M14 melanoma): > 100 µM | TGI (SR leukemia): > 100 µM | TGI (HL-60(TB) leukemia): 48.3 µM | TGI (UACC-62 melanoma): 55.8 µM | TGI (MOLT-4 leukemia): > 100 µM | TGI (KM20L2 colon): > 100 µM | TGI (LXFL 529 NSCLC): > 100 µM

CC(=O)Nc1ccc(-c2nnc(SCC(=O)Nc3ccccc3[N+](=O)[O-])o2)cc1
TGI (OVCAR-5 ovarian): > 100 µM | TGI (M14 melanoma): > 100 µM | TGI (SR leukemia): > 100 µM | TGI (HL-60(TB) leukemia): > 100 µM | TGI (UACC-62 melanoma): > 100 µM | TGI (MOLT-4 leukemia): > 100 µM | TGI (KM20L2 colon): > 100 µM | TGI (LXFL 529 NSCLC): > 100 µM
